Data set [1] in a line: detection in rat blood after oral or intravenous administration of Example 1. The class given is in vivo. Particulars: for detection in blood: rats dosed with Example 1 orally or by vein injection, over 24 hours. On the procedure: FIG. 7 is a graph showing the detection of the compounds of Example 1 and Example 2 in rat blood after oral or intravenous administration of the compound of Example 1.
FIG. 8 is a graph showing the time it takes for the compound of Example 1 to be converted in vivo to the compound of Example 2.
All rats were dosed with the compound of Example 1 either orally or by vein injection.

A short description of data set [2]: stability in human plasma. The class given is in vitro ADME. The following applies: human plasma dosed with Example 1. From the text:
FIG. 9 is a graph showing the stability of the compound of Example 2 in human plasma once converted from the compound of Example 1.

Data set [3] deals with isolated rat brain slices. The data set is described as follows: voltage sensitive dye imaging of electrically stimulated brain slices. The class given is cell-based. On the procedure: The compounds described in the above examples display activity in in vitro and in vivo assays that track brain electrical activity. A first assay is conducted using voltage sensitive dye imaging. This is done on isolated rat brain slices kept viable in artificial cerebral spinal fluid (ACSF). Electrically stimulating the slice activates the neural assemblies therein. A voltage sensitive dye, such as, di-4-ANEPPS, is incubated with a brain slice for 1 hour in a suitable solution that enhances the dye penetration into the tissue. The dye reacts to changes in voltage across the cell membrane of the neurons in the brain slice. The example compounds are added to the ACSF at known concentration between 50 and 200 nM. The brain slices are then subjected to an electrical stimulus that activates the neurons in the slice. As the dye reacts to the change in voltage, which can be observed and quantified, the degree to which activation of the brain is dampened by the presence of the example compound is evaluated.

Data set [4] has as its system voltage-gated sodium channels. The data set is described as follows: patch clamp electrophysiology on cultured cortical neurons. The class given is cell-based, rat. Particulars: 100 μM. Here is the method:
In another assay, the inhibition by the example compounds on the activity of voltage-gated sodium channels is determined using patch clamp electrophysiology. This analysis is done on cultured cortical neurons isolated from rats. […] This was done by assessing the suppression of the voltage gated sodium channel activity 16 ms after a test pulse.
Under control conditions, recovery occurs at a rate of about 13 ms. In the presence of 100 μM of the compound of Example 1, recovery is slowed to a rate of about 26 ms, and recovery is substantially complete after about 50 ms. […] This is a desirable property for antiseizure compounds, as little or no block of normal function occurs, while reducing (epileptic) activity that occurs at high frequency.
For orientation: In patch-clamp work, channel activity is measured electrically.

The subject of data set [5] is rodent kindling model of epilepsy (partial complex seizures). Nature of the data set: amygdala kindling model of epilepsy. The data set is classed as in vivo, rat. The following applies: 20 mg/kg. On the procedure: FIG. 4 is a summary of data showing the prevention, by the compound of Example 1 at a dose of 20 mg/kg, of stage 5 seizures in an animal model of partial complex seizures, using the amygdala kindling model of epilepsy. FIG. 5 is a graph showing that the pre-treatment of rats (20 mg/kg) undergoing the amygdala kindling procedure prevents the development of stage 5 seizures. […] This model produces partial complex seizures that are similar to temporal lobe seizures experienced by humans. […] Therefore, compounds according to the present invention, including preferably the compound of Example 1, may be used in prophylactic treatment or prevention of epileptogenesis.

For data set [6], the system named is rodent model of traumatic brain injury/stress. The data set is described as follows: rodent model of traumatic brain injury/stress. The class given is in vivo, rat. From the text: FIG. 6 is an electrographic record of activity from the amygdala of a rat which has undergone traumatic brain injury and has been stressed (tail pinch). […] After moderate traumatic brain injury under control conditions, stress induces epileptiform activity in the amygdala. This activity is shown on the left in FIG. 6, where a stressor induces increased activity. […] On the right in FIG. 6, it is evident that the compound of Example 1 prevents the induction of this response and is particularly effective in reducing high frequency activity (i.e. >250 Hz) that is considered to be epileptogenic. This electrophysiological response in the control traumatic brain injury rats was accompanied by stage 2 to 3 seizures (Racine scale: av. 2.0±0.5 n=6 rats). These behavioral responses were blocked in the traumatic brain injury rats treated with the compound of Example 1.

Turning to `CC1(C)CC(=O)C=C(c2ccc(C(=O)O)cc2)C1` [Example 2, 3′,3′-Dimethyl-5′-oxo-2′,3′,4′,5′-tetrahydro-[1,1′-biphenyl]-4-carboxylic acid], the detection in blood entry in data set [1] is reported as “the only molecule detected in significant quantities”. Also, the “stability in human plasma” value in data set [2] was “stable and is not further converted to another molecule”.

On to `COC(=O)c1ccc(C2=CC(=O)CC(C)(C)C2)cc1` [Example 1, Methyl 3′,3′-dimethyl-5′-oxo-2′,3′,4′,5′-tetrahydro-[1,1′-biphenyl]-4-carboxylate], for which, in data set [3], the “effect on amplitude and duration of the response” value is “reduced both amplitude and duration of the response”. For the same compound, the “suppression of activation of the brain slice activity” value in data set [3] (50 nM) was determined as 29±5%. Besides, in data set [3] (200 nM), the “suppression of activation of the brain slice activity” value came out at 48±5%. The compound also showed a reduction of activity in data set [3] (60 pulses/second) of 48%. The “activity at low stimulation frequency” value in data set [3] (stimulation frequency of 20 pulses/second) was “little or no activity”. Also, in data set [4], the recovery from inactivation is 100% and the “time after which recovery is substantially complete” value is recorded as “about 50 ms”. Also, in data set [4] (control about 13 ms), the “rate of recovery of sodium channel inactivation” value is recorded as “about 26 ms”. In addition, in data set [5] (oral administration), the “stage 5 seizures” value is given as “prevents stage 5 seizures from occurring”. In addition, the “development of epileptic seizures” value in data set [5] (prior prophylactic dosing) was “prevents the onset of seizures”. The “induction of seizure (epileptiform) activity in the amygdala by stress” value in data set [6] (after moderate traumatic brain injury, tail pinch) is on record as “prevents the induction of seizure activity”. In addition, in data set [6] (traumatic brain injury rats), the “behavioral responses (stage 2 to 3 seizures, Racine scale)” value is on record as “blocked”. Moreover, the “time course of conversion of Example 1 to Example 2” value in data set [1] (rats dosed with 20 mg/kg of Example 1) was “substantially complete within one hour”. The detection in blood entry in data set [1] is “only detectable as the free acid”.
